Experimental data reported in patent publication US20220081435A1, “ANDROGEN RECEPTOR PROTEIN DEGRADERS” (THE REGENTS OF THE UNIVERSITY OF MICHIGAN, priority 2019, published 2022).

Molecular target: T1, AR protein (Homo sapiens, UniProt P10275, T878A)
T1 construct: The percent AR protein degradation induced by these compounds at various concentrations in LNCaP cells; host or cells: LNCaP
T1 sequence (P10275 1-920 T878A): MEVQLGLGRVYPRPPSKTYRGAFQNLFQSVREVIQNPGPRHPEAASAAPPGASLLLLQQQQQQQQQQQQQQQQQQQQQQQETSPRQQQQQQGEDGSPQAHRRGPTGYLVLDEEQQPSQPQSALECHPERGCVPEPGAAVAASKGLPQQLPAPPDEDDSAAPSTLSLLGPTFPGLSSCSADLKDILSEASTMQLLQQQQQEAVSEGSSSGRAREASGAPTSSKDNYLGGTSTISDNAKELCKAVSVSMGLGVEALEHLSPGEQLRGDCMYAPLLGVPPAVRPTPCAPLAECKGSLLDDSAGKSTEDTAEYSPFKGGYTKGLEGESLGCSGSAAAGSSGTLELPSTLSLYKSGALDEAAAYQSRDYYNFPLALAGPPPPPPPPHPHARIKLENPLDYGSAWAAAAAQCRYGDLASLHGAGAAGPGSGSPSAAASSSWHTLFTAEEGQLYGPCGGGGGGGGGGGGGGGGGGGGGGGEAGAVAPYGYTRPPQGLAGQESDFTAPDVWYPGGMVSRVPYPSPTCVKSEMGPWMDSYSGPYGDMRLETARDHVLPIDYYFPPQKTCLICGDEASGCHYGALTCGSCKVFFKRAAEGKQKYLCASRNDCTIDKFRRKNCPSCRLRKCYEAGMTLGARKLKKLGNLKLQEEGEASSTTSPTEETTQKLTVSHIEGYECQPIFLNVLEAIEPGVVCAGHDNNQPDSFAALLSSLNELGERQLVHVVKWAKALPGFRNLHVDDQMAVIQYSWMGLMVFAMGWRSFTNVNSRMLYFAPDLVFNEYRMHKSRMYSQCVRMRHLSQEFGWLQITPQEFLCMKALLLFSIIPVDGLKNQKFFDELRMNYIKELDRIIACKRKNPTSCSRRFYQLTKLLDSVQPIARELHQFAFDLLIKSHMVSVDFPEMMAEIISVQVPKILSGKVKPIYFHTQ
Assay: AR protein degradation in LNCaP cells (Western blotting)
Type: cell-based
Conditions: for % AR protein degradation in LNCaP Cells / Dmax at 0.01 µM / Dmax at 0.1 µM / Dmax at 1 µM / Dmax at 10 µM: treatment time 6 h, average of three independent experiments; for AR degradation (Western blotting, dose-dependent) / Dmax at 0.01 µM / Dmax at 0.1 µM / Dmax at 1 µM / Dmax at 10 µM: LNCaP; for Dmax at 0.1 µM / Dmax at 1 µM / Dmax at 10 µM: read-out: % AR protein degradation in LNCaP Cells
Experimental: Cell lines and Cell Culture: All the LNCaP, VCaP and 22RV1 cells used were purchased from American Type Culture Collection (ATCC). […] All of the cells were supplemented with 10% fetal bovine serum (Invitrogen) at 37° C. in a humidified 5% CO2 incubator.
Western Blotting. Treated cells were lysed by RIPA buffer supplemented with protease and phosphatase inhibitors. […] Software ImageJ was used to quantify the percentage of AR degradation. The net protein bands and loading controls are calculated by deducting the background from the inverted band value. The final relative quantification values are the ratio of net band to net loading control.

| SMILES | % AR protein degradation in LNCaP Cells (0.1 μM) [%] | % AR protein degradation in LNCaP Cells (1 μM) [%] | Dmax at 0.1 µM (0.1 μM) [%] | Dmax at 1 µM (1 μM) [%] | Dmax at 10 µM (10 μM) [%] | also measured |
| --- | --- | --- | --- | --- | --- | --- |
| Cc1ncsc1-c1ccc([C@H](CC(=O)N2CCC(N3CCC(C#Cc4ccc(C(=O)N[C@H]5C(C)(C)[C@H](Oc6ccc(C#N)c(Cl)c6)C5(C)C)cc4)CC3)CC2)NC(=O)[C@@H]2C[C@@H](O)CN2C(=O)[C@H](NC(=O)C2(F)CC2)C(C)(C)C)cc1 [Compound 38, (2S,4R)—N—((S)-3-(4-((4-(((1r,3r)-3-(3-Chloro-4-cyanophenoxy)-2,2,4,4-tetramethyl-cyclobutyl)carbamoyl)phenyl)ethynyl)-[1,4′-bipiperidin]-1′-yl)-1-(4-(4-methylthiazol-5-yl)phenyl)-3-oxopropyl)-1-((R)-2-(1-fluorocyclopropane-1-carboxamido)-3,3-dimethyl-butanoyl)-4-hydroxypyrrolidine-2-carboxamide] | <5 | <5 |  |  |  | % AR protein degradation in LNCaP Cells (10 μM): <5% |
| Cc1ncsc1-c1ccc([C@H](CC(=O)N2CCC(N3CCC(C#Cc4ccc(C(=O)N[C@H]5C(C)(C)[C@H](Oc6ccc(C#N)c(Cl)c6)C5(C)C)cc4)CC3)CC2)NC(=O)[C@@H]2C[C@@H](O)CN2C(=O)[C@@H](NC(=O)C2(C#N)CC2)C(C)(C)C)cc1 [Compound 35, (2S,4R)—N—((S)-3-(4-((4-(((1r,3r)-3-(3-Chloro-4-cyanophenoxy)-2,2,4,4-tetramethyl-cyclobutyl)carbamoyl)phenyl)ethynyl)-[1,4′-bipiperidin]-1′-yl)-1-(4-(4-methylthiazol-5-yl)phenyl)-3-oxopropyl)-1-((S)-2-(1-cyanocyclopropane-1-carboxamido)-3,3-dimethylbutanoyl)-4-hydroxypyrrolidine-2-carboxamide] | 99 | 100 |  |  |  | % AR protein degradation in LNCaP Cells (0.01 μM): 76%; AR degradation (Western blotting, dose-dependent) (at 10 nM): partial AR degradation; AR degradation (Western blotting, dose-dependent) (at both 100 nM and 1 μM): essentially complete AR degradation |
| Cc1cc([C@H](C(=O)N2C[C@H](O)C[C@H]2C(=O)N[C@@H](CC(=O)N2CCN(c3ccc(C#Cc4ccc(C(=O)N[C@H]5C(C)(C)[C@H](Oc6ccc(C#N)c(Cl)c6)C5(C)C)cc4)cn3)CC2)c2ccc(-c3scnc3C)cc2)C(C)C)on1 [Compound 28, (2S,4R)—N—((S)-3-(4-(5-((4-(((1r,3r)-3-(3-Chloro-4-cyanophenoxy)-2,2,4,4-tetramethylcyclobutyl)carbamoyl)phenyl)ethynyl)pyridin-2-yl)piperazin-1-yl)-1-(4-(4-methylthiazol-5-yl)phenyl)-3-oxopropyl)-4-hydroxy-1-((R)-3-methyl-2-(3-methylisoxazol-5-yl)butanoyl)pyrrolidine-2-carboxamide] | 72 | 93 |  |  |  | % AR protein degradation in LNCaP Cells (0.01 μM): 22% |
| Cc1cc([C@H](C(=O)N2C[C@H](O)C[C@H]2C(=O)N[C@@H](CC(=O)NCCCCCCCCCNC(=O)c2ccc(C(=O)N[C@H]3C(C)(C)[C@H](Oc4ccc(C#N)c(Cl)c4)C3(C)C)cc2)c2ccc(-c3scnc3C)cc2)C(C)C)on1 [Compound 39, N1-((1r,3r)-3-(3-Chloro-4-cyanophenoxy)-2,2,4,4-tetramethylcyclobutyl)-N4-(9-((S)-3-((2S,4R)-4-hydroxy-1-((R)-3-methyl-2-(3-methylisoxazol-5-yl)butanoyl)pyrrolidine-2-carboxamido)-3-(4-(4-methylthiazol-5-yl)phenyl)propanamido)nonyl)terephthalamide] |  |  | 91 | 96 |  | Dmax at 0.01 µM (0.01 μM): 43% |
| Cc1ncsc1-c1ccc(CNC(=O)C2C[C@@H](O)CN2C(=O)[C@@H](NC(=O)CCOCCOCCNC(=O)c2ccc(N3C(=S)N(c4ccc(C#N)c(C(F)(F)F)c4)C(=O)C3(C)C)cc2F)C(C)(C)C)cc1 (stereo partly drawn) [Compound 18, (4R)-1-((S)-13-(tert-Butyl)-1-(4-(3-(4-cyano-3-(trifluoromethyl)phenyl)-5,5-dimethyl-4-oxo-2-thioxoimidazolidin-1-yl)-2-fluorophenyl)-1,11-dioxo-5,8-dioxa-2,12-diazatetradecan-14-oyl)-4-hydroxy-N-(4-(4-methylthiazol-5-yl)benzyl)pyrrolidine-2-carboxamide] |  |  | 32 | 35 | 40 |  |
| Cc1ncsc1-c1ccc([C@H](C)NC(=O)[C@@H]2C[C@@H](O)CN2C(=O)[C@@H](NC(=O)CCCCN2CCN(c3ccc(C#Cc4ccc(N5C(=S)N(c6ccc(C#N)c(C(F)(F)F)c6)C(=O)C5(C)C)cc4)cn3)CC2)C(C)(C)C)cc1 [Compound 22, (2S,4R)-1-((S)-2-(5-(4-(5-((4-(3-(4-Cyano-3-(trifluoromethyl)phenyl)-5,5-dimethyl-4-oxo-2-thioxoimidazolidin-1-yl)phenyl)ethynyl)pyridin-2-yl)piperazin-1-yl)pentanamido)-3,3-dimethylbutanoyl)-4-hydroxy-N—((S)-1-(4-(4-methylthiazol-5-yl)phenyl)ethyl)pyrrolidine-2-carboxamide] |  |  | 48 | 89 |  | Dmax at 0.01 µM (0.01 μM): 28% |
| Cc1ncsc1-c1ccc([C@@H](CC(=O)N2CCC(N3CCC(C#Cc4ccc(C(=O)N[C@H]5C(C)(C)[C@H](Oc6ccc(C#N)c(Cl)c6)C5(C)C)cc4)CC3)CC2)NC(=O)[C@@H]2C[C@@H](O)CN2C(=O)[C@@H](NC(=O)C2(F)CC2)C(C)(C)C)cc1 [Compound 37, (2S,4R)—N—((R)-3-(4-((4-(((1r,3r)-3-(3-Chloro-4-cyanophenoxy)-2,2,4,4-tetramethyl-cyclobutyl)carbamoyl)phenyl)ethynyl)-[1,4′-bipiperidin]-1′-yl)-1-(4-(4-methylthiazol-5-yl)phenyl)-3-oxopropyl)-1-((S)-2-(1-fluorocyclopropane-1-carboxamido)-3,3-dimethyl-butanoyl)-4-hydroxypyrrolidine-2-carboxamide] | <5 | <5 |  |  |  | % AR protein degradation in LNCaP Cells (10 μM): <5% |
| Cc1ncsc1-c1ccc(CNC(=O)C2C[C@@H](O)CN2C(=O)[C@@H](NC(=O)CCNC(=O)c2ccc(N3C(=S)N(c4ccc(C#N)c(C(F)(F)F)c4)C(=O)C3(C)C)cc2F)C(C)(C)C)cc1 (stereo partly drawn) [Compound 8, (4R)-1-((S)-2-(3-(4-(3-(4-Cyano-3-(trifluoromethyl)phenyl)-5,5-dimethyl-4-oxo-2-thioxoimidazolidin-1-yl)-2-fluorobenzamido)propanamido)-3,3-dimethylbutanoyl)-4-hydroxy-N-(4-(4-methylthiazol-5-yl)benzyl)pyrrolidine-2-carboxamide] |  |  | 26 | 35 | 28 |  |
| Cc1ncsc1-c1ccc(CNC(=O)C2C[C@@H](O)CN2C(=O)[C@@H](NC(=O)CCCCCCNC(=O)c2ccc(N3C(=S)N(c4ccc(C#N)c(C(F)(F)F)c4)C(=O)C3(C)C)cc2F)C(C)(C)C)cc1 (stereo partly drawn) [Compound 12, (4R)-1-((S)-2-(7-(4-(3-(4-Cyano-3-(trifluoromethyl)phenyl)-5,5-dimethyl-4-oxo-2-thioxoimidazolidin-1-yl)-2-fluorobenzamido)heptanamido)-3,3-dimethylbutanoyl)-4-hydroxy-N-(4-(4-methylthiazol-5-yl)benzyl)pyrrolidine-2-carboxamide] |  |  | 54 | 84 | 64 |  |
| Cc1ncsc1-c1ccc(CNC(=O)C2C[C@@H](O)CN2C(=O)[C@@H](NC(=O)CCCCCNC(=O)c2ccc(N3C(=S)N(c4ccc(C#N)c(C(F)(F)F)c4)C(=O)C3(C)C)cc2F)C(C)(C)C)cc1 (stereo partly drawn) [Compound 11, (4R)-1-((S)-2-(6-(4-(3-(4-Cyano-3-(trifluoromethyl)phenyl)-5,5-dimethyl-4-oxo-2-thioxoimidazolidin-1-yl)-2-fluorobenzamido)hexanamido)-3,3-dimethylbutanoyl)-4-hydroxy-N-(4-(4-methylthiazol-5-yl)benzyl)pyrrolidine-2-carboxamide] |  |  | 11 | 25 | 29 |  |
